MIC data for four compounds are collected here from patent US20200325177A1, “METHODS OF MAKING STREPTOGRAMIN COMPOSITIONS AND THE USE THEREOF” (THE REGENTS OF THE UNIVERSITY OF CALIFORNIA, priority 2017, published 2020).

Molecules are shown by their SMILES. Converted amounts (≈) assume the structure as drawn. Where two headings read alike, the source gives them in different places.

Holding throughout (format): cell-based
One assay deals with E. faecalis. The experiment in a line: MIC, Gram-positive bacteria: E. faecalis. As to conditions: Enterococcus faecalis, column 1, read-out: Minimal Inhibitory Concentration (MIC) E. faecalis.
Another assay deals with E. faecium ATCC 35667. The experiment in a line: MIC, Gram-positive bacteria: E. faecium ATCC 35667. As to conditions: Enterococcus faecium, ATCC35667, column 2, read-out: Minimal Inhibitory Concentration (MIC) E. faecium ATCC 35667.
In a further assay the test system is E. faecium VRE; vanA. Put plainly: MIC, Gram-positive bacteria: E. faecium VRE; vanA. Conditions: Enterococcus faecium, column 3, read-out: Minimal Inhibitory Concentration (MIC) E. faecium VRE.
The next assay relates to S. aureus. Put plainly: MIC, Gram-positive bacteria: S. aureus (strains not named). Conditions: Staphylococcus aureus, read-out: Minimal Inhibitory Concentration (MIC) S. aureus.
Assay [1] concerns S. aureus Vat A streptogramin. The experiment in a line: MIC, Gram-positive bacteria: S. aureus Vat A streptogramin. Conditions: Staphylococcus aureus; Gram-positive; column 5; read-out: Minimal Inhibitory Concentration (MIC) S. aureus Vat A streptogramin.
The test system of assay [2] is S. aureus Linezolid-resistant; cfr. The experiment in a line: MIC, Gram-positive bacteria: S. aureus Linezolid-resistant; cfr. Conditions: Staphylococcus aureus, column 9, read-out: Minimal Inhibitory Concentration (MIC) S. aureus Linezolid-resistant.
Another assay deals with S. pneumoniae. Put plainly: MIC, Gram-positive bacteria: S. pneumoniae. As to conditions: Streptococcus pneumoniae, column 10, read-out: Minimal Inhibitory Concentration (MIC) S. pneumoniae.
For assay [3], the system named is K. pneumoniae multidrug-resistant. The experiment in a line: MIC, Gram-negative bacteria: K. pneumoniae multidrug-resistant. As to conditions: Klebsiella pneumoniae, read-out: Minimal Inhibitory Concentration (MIC) K. pneumoniae multidrug-resistant.
A further assay concerns P. aeruginosa ATCC 27853. The experiment in a line: MIC, Gram-negative bacteria: P. aeruginosa ATCC 27853. As to conditions: Pseudomonas aeruginosa, ATCC27853, read-out: Minimal Inhibitory Concentration (MIC) P. aeruginosa ATCC 27853.
Assay [4] concerns P. aeruginosa MDR clinical isolate. Put plainly: MIC, Gram-negative bacteria: P. aeruginosa MDR clinical isolate. As to conditions: Pseudomonas aeruginosa, read-out: Minimal Inhibitory Concentration (MIC) P. aeruginosa MDR clinical isolate.
A further assay has as its system H. influenzae ATCC 49247. Put plainly: MIC, Gram-negative bacteria: H. influenzae ATCC 49247. Conditions: Haemophilus influenzae, ATCC49247, read-out: Minimal Inhibitory Concentration (MIC) H. influenzae ATCC 49247.
For a further assay, the system named is Gram-Negative Organisms. The experiment in a line: microbe, parasite or virus in culture.
Where [5] appears, read: first unnamed S. aureus column (c4).
Where [6] appears, read: fourth unnamed S. aureus column (c8).
Where [7] appears, read: second unnamed S. aureus column (c6).
[8] abbreviates: third unnamed S. aureus column (c7).
Setting [9] is: Acinetobacter baumannii, ATCC19606, read-out: Minimal Inhibitory Concentration (MIC), A. baumannii ATCC 19606.
The mark [10] stands for this setting: Escherichia coli, ATCC25922, read-out: Minimal Inhibitory Concentration (MIC), E. coli ATCC 25922.
The mark [11] stands for this setting: Escherichia coli, read-out: Minimal Inhibitory Concentration (MIC), E. coli BAS2006, OMP C, OMP F.
[12] abbreviates: Escherichia coli, read-out: Minimal Inhibitory Concentration (MIC), E. coli olC efflux defective.
[13] abbreviates: Escherichia coli, read-out: Minimal Inhibitory Concentration (MIC), E. coli permeability mutant BAS1314, IMP4213ZAB::TN10.
The mark [14] stands for this setting: Klebsiella pneumoniae, ATCC43816, read-out: Minimal Inhibitory Concentration (MIC), K. pneumoniae ATCC 43816.

Take `CC1=C\[C@@H](O)CC(=O)Cc2nc(co2)C(=O)N2CCC[C@@H]2C(=O)O[C@H]([C@H](C)COC(=O)Nc2ccccn2)[C@H](C)/C=C/C(=O)NC\C=C\1` [SA0110222]: the MIC is above 64 µg/mL in the assay on E. faecalis; 32 µg/mL (≈ 48.2 µM) in the assay on E. faecium ATCC 35667; 64 µg/mL (≈ 96.4 µM) in the assay on E. faecium VRE; vanA; above 64 µg/mL in the assay with S. aureus (setting [5]); 64 µg/mL (≈ 96.4 µM) in the assay with S. aureus (setting [6]); above 64 µg/mL with S. aureus (setting [7]). Also, the MIC with S. aureus (setting [8]) was above 64 µg/mL; in assay [1], above 64 µg/mL; in assay [2], above 64 µg/mL; with S. pneumoniae, 32 µg/mL (≈ 48.2 µM); in assay [3], above 64 µg/mL; in the assay on P. aeruginosa ATCC 27853 it was above 64 µg/mL. Also, the MIC in [4] was above 64 µg/mL; in the assay with H. influenzae ATCC 49247 it was 16 µg/mL (≈ 24.1 µM); in the assay on Gram-Negative Organisms (setting [9]), above 64 µg/mL; in the assay on Gram-Negative Organisms (setting [10]), above 64 µg/mL; in the assay on Gram-Negative Organisms (setting [11]) it was 64 µg/mL (≈ 96.4 µM); in the assay with Gram-Negative Organisms (setting [12]), 4 µg/mL (≈ 6.03 µM). In addition, the MIC with Gram-Negative Organisms (setting [13]) is 16 µg/mL (≈ 24.1 µM); in the assay with Gram-Negative Organisms (Escherichia coli, read-out: Minimal Inhibitory Concentration (MIC), E. coli ΔompC768, KanR insert), above 64 µg/mL; in the assay with Gram-Negative Organisms (setting [14]), above 64 µg/mL.

On to `CC1=C\[C@@H](O)CC(=O)Cc2nc(co2)C(=O)N2CCC[C@@H]2C(=O)O[C@H]([C@@H](C)COC(=O)Nc2cccnc2)[C@H](C)/C=C/C(=O)NC\C=C\1` [SA0110067], for which the MIC in the assay on E. faecalis was above 64 µg/mL; in the assay on E. faecium ATCC 35667, 32 µg/mL (≈ 48.2 µM); in the assay with E. faecium VRE; vanA, above 64 µg/mL; in the assay with S. aureus (setting [5]), above 64 µg/mL; in the assay with S. aureus (setting [6]), 64 µg/mL (≈ 96.4 µM); in the assay with S. aureus (setting [7]), above 64 µg/mL. The MIC was above 64 µg/mL with S. aureus (setting [8]); above 64 µg/mL in assay [1]; above 64 µg/mL in assay [2]; 32 µg/mL (≈ 48.2 µM) with S. pneumoniae; above 64 µg/mL in assay [3]; above 64 µg/mL in the assay on P. aeruginosa ATCC 27853. In addition, the MIC is above 64 µg/mL in [4]; above 64 µg/mL with H. influenzae ATCC 49247; above 64 µg/mL in the assay with Gram-Negative Organisms (setting [9]); above 64 µg/mL in the assay with Gram-Negative Organisms (setting [10]); 64 µg/mL (≈ 96.4 µM) in the assay on Gram-Negative Organisms (setting [11]); 8 µg/mL (≈ 12.1 µM) in the assay with Gram-Negative Organisms (setting [12]). Moreover, the MIC with Gram-Negative Organisms (setting [13]) is 32 µg/mL (≈ 48.2 µM); in the assay with Gram-Negative Organisms (setting [14]), above 64 µg/mL.

`CC1=C\[C@@H](O)CC(=O)Cc2nc(co2)C(=O)N2CCC[C@@H]2C(=O)O[C@H]([C@@H](C)COC(=O)Nc2ccc(F)cc2)[C@H](C)/C=C/C(=O)NC\C=C\1` [SA0110036]: the MIC was above 64 µg/mL in the assay on E. faecalis; 8 µg/mL (≈ 11.8 µM) with E. faecium ATCC 35667; 32 µg/mL (≈ 47 µM) in the assay on E. faecium VRE; vanA; 32 µg/mL (≈ 47 µM) in the assay with S. aureus (setting [5]); 16 µg/mL (≈ 23.5 µM) in the assay on S. aureus (setting [6]); 32 µg/mL (≈ 47 µM) with S. aureus (setting [7]). Besides, the MIC with S. aureus (setting [8]) was above 64 µg/mL; in assay [1], above 64 µg/mL; in assay [2] it was above 64 µg/mL; in the assay with S. pneumoniae, 16 µg/mL (≈ 23.5 µM); in assay [3] it was above 64 µg/mL; in the assay with P. aeruginosa ATCC 27853, above 64 µg/mL. Also, the MIC in assay [4] was above 64 µg/mL; in the assay with H. influenzae ATCC 49247 it was above 64 µg/mL; in the assay on Gram-Negative Organisms (setting [9]), above 64 µg/mL; with Gram-Negative Organisms (setting [10]), above 64 µg/mL; in the assay on Gram-Negative Organisms (setting [11]) it was 8 µg/mL (≈ 11.8 µM); in the assay with Gram-Negative Organisms (setting [12]) it was 2 µg/mL (≈ 2.94 µM). The figures for the MIC with Gram-Negative Organisms (setting [13]) and in the assay with Gram-Negative Organisms (setting [14]) were 8 µg/mL (≈ 11.8 µM) and above 64 µg/mL, respectively.

On to `CC1=C\[C@@H](O)CC(=O)Cc2nc(co2)C(=O)N2CCC[C@@H]2C(=O)O[C@H]([C@@H](C)COC(=O)Nc2csc(C)n2)[C@H](C)/C=C/C(=O)NC\C=C\1` [SA0110098], for which the MIC was above 64 µg/mL with E. faecalis; 16 µg/mL (≈ 23.4 µM) in the assay on E. faecium ATCC 35667; 64 µg/mL (≈ 93.6 µM) with E. faecium VRE; vanA; 64 µg/mL (≈ 93.6 µM) with S. aureus (setting [5]); 32 µg/mL (≈ 46.8 µM) with S. aureus (setting [6]); 32 µg/mL (≈ 46.8 µM) with S. aureus (setting [7]). In addition, the MIC in the assay with S. aureus (setting [8]) is 64 µg/mL (≈ 93.6 µM); in [1], above 64 µg/mL; in assay [2], above 64 µg/mL; in the assay on S. pneumoniae, 16 µg/mL (≈ 23.4 µM); in assay [3] it was above 64 µg/mL; with P. aeruginosa ATCC 27853, above 64 µg/mL. Besides, the MIC in assay [4] is above 64 µg/mL; with H. influenzae ATCC 49247, 32 µg/mL (≈ 46.8 µM); with Gram-Negative Organisms (setting [9]) it was above 64 µg/mL; in the assay on Gram-Negative Organisms (setting [10]), above 64 µg/mL; with Gram-Negative Organisms (setting [11]), 16 µg/mL (≈ 23.4 µM); in the assay with Gram-Negative Organisms (setting [12]), 2 µg/mL (≈ 2.92 µM). The figures for the MIC with Gram-Negative Organisms (setting [13]) and in the assay on Gram-Negative Organisms (setting [14]) were 8 µg/mL (≈ 11.7 µM) and above 64 µg/mL, respectively.
